The values that follow come from patent US10751339B2, “Substituted aminopyrimidine compounds and methods of use” (SUNSHINE LAKE PHARMA CO., LTD., priority 2018, dated 2020).

The test system of one series is PI3K-α (SKOV3). Description: p-AKT HTRF assay, PI3K-α in SKOV3 cells. In kind it is cell-based. The note with it: Homo sapiens, SK-OV-3. The protocol: (§1) Cells were incubated at 37° C. in a 5% CO2 atmosphere overnight. […] Medium was then aspirated and 50 μL/well of lysis buffer was added. Plates were shaked for 45 minutes at room temperature and then 16 ul/well of lysate was transferred to 384-well plate. 4 ul/well of premixed antibody was added to the wells. The plate was centrifuged at 1000 rpm at RT for 1 minute and then incubated for 4 hours at 22° C., and Phospho-AKT (ser473) Kit was used for detection.
A general note: Time-resolved FRET reads energy transfer from a long-lived donor to a nearby acceptor.

The target in another series is PI3K (p110α/p85α) (h) (Homo sapiens (Human), UniProt P42336). Description: PI3K (p110α/p85α) (h) non-radioactive HTRF kinase assay. In kind it is biochemical. The protocol: (§2) PI3K (p110α/p85α) (h) is incubated in assay buffer containing 10 μM phosphatidylinositol 4,5-bisphosphate and MgATP (concentration as required). The reaction is initiated by the addition of the ATP solution. After incubation for 30 minutes at room temperature, the reaction is stopped by the addition of stop solution containing EDTA and biotinylated phosphatidylinositol-3,4,5-trisphosphate. Finally, detection buffer is added, which contains europium-labelled anti-GST monoclonal antibody, GST-tagged GRP1 PH domain and streptavidin allophycocyanin. The plate is then read in timeresolved fluorescence mode and the homogenous time-resolved fluorescence (HTRF) signal is determined according to the formula HTRF=10000×(Em665 nm/Em620 nm).
Chain of PI3K (p110α/p85α) (h) (P42336 whole entry, the tested form may be a part): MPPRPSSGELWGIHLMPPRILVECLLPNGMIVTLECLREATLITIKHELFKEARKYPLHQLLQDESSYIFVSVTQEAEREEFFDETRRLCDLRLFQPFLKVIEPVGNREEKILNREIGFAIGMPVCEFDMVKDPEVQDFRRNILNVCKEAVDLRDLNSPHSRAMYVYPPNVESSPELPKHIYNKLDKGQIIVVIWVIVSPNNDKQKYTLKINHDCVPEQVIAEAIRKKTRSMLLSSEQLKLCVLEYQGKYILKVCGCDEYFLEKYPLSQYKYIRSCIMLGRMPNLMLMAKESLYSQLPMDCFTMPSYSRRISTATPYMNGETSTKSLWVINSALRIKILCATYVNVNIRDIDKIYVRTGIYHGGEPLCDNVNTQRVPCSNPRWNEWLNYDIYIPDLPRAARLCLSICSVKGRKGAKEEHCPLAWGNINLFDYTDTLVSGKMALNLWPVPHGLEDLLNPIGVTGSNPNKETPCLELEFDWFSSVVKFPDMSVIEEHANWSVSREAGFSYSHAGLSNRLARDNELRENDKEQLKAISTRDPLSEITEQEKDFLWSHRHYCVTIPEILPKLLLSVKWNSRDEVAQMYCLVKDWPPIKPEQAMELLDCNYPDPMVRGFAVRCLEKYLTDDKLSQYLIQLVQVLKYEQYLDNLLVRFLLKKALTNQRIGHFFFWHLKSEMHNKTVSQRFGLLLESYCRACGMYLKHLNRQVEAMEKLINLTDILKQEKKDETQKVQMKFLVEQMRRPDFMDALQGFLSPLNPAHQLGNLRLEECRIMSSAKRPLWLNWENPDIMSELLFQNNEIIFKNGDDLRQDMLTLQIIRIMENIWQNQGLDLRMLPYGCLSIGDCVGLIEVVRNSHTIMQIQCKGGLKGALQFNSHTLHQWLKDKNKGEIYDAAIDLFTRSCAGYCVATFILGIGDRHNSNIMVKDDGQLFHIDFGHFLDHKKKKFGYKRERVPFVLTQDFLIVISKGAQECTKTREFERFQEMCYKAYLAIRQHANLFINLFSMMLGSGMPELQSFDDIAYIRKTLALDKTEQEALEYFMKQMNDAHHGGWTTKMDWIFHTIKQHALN
Chain of PI3K (p110α/p85α) (h) (P27986 whole entry partner, the tested form may be a part): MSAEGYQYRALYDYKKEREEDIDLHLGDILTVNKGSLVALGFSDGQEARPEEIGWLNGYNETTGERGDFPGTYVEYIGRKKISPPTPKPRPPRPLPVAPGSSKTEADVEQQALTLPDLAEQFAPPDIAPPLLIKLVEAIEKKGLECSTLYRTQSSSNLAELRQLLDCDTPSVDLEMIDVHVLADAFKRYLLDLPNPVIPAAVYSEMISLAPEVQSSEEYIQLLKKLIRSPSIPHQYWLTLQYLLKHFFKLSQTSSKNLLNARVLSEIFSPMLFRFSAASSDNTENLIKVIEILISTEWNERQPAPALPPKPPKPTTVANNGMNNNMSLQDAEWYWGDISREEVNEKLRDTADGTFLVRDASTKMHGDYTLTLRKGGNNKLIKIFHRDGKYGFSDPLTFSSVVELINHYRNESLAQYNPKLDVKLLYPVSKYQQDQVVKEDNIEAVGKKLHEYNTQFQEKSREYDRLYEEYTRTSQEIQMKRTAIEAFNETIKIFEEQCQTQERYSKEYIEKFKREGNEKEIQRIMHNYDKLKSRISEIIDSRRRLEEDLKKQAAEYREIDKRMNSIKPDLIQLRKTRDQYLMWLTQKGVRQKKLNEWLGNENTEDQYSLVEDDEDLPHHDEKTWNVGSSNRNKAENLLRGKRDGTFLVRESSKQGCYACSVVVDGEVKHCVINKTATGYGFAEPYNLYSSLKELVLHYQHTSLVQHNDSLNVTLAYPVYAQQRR
(§3) The kinase assays described herein were performed at Millipore UK Ltd, Dundee Technology Park, Dundee DD2 1SW, UK.

Series [1] can be described thus: Compound stability in human liver microsomes. Conditions: pH 7.4. The series is classed as in vitro ADME. The essentials: (§4)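 Compounds (5 μM, 0.05% DMSO) incubated in duplicate with liver microsomes (0.5 mg protein/mL) and 1.0 mM NADPH in 100 mM phosphate buffer pH 7.4 at 37 °C, sampled 0–60 min. Remaining compound measured by LC/MS/MS, expressed as percent of zero-time control; denatured-microsome and dextromethorphan controls included.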

A further series concerns PI3K-β (786-O). Description: p-AKT HTRF assay, PI3K-β in 786-O cells. The note with it: Homo sapiens, 786-0. The series is classed as cell-based. The protocol:
as §1

A further series deals with WSU-NHL. Description: Cell proliferation assay (CTG), WSU-NHL. Conditions: Homo sapiens, 72 h. The series is classed as cell-based. The procedure:
(§5) • 1. Harvest cells during the logarithmic growth period and count cell number using Count-star. • 2. Adjust cell concentrations to […] with respective culture medium. • 3. Add 90 μL cell suspensions to 96-well plates with the final cell density of 1×10^4 cells/well. (cell concentration will be adjusted according to the data base or density optimization assay.) • 4. The next day, prepare 10× solution (Top working concentration: 10 μM of test article in media with 3.16-fold serial dilutions to achieve 9 dose levels). • 5. Dispense 10 μL drug solution of both test article and reference control in each well (duplicate for each drug concentration) of the plate.

Series [2] in a line: Compound stability in rat liver microsomes. The series is classed as in vitro ADME. Conditions: pH 7.4. The essentials:
as §4
(Liver microsomes are a subcellular fraction often used to study metabolism.)

Another series concerns CCRF-SB. Description: Cell proliferation assay (CTG), CCRF-SB. In kind it is cell-based. The note with it: Homo sapiens, 72 h. The procedure:
as §5

A further series concerns SU-DHL-10. Description: Cell proliferation assay (CTG), SU-DHL-10. Conditions: Homo sapiens, SU-DHL10, 72 h. The series is classed as cell-based. The procedure: as §5
The next series deals with hERG channels (Homo sapiens (Human), UniProt Q12809). Description: hERG assay, manual patch-clamp in HEK-293 cells. The series is classed as cell-based. An excerpt:
Voltage clamp protocol: Computer software was used to set voltage clamp protocols. In whole-cell model, cells were held at −80 mV, first depolarized to −50 mV for 80 ms, and then depolarized to +20 mV for 4800 ms to activate the hERG channels. After that the cells were repolarized to −50 mV for 5000 ms to elicit the characteristic tail currents. Finally the cells were held at −80 mV again. The peak values of tail currents were sampled for analysis.
Manual patch-clamp protocol: The manual patch-clamp system was used to record the hERG currents in human embryonic kidney (HEK-293) cells. The cells were harvested and transferred to the recording charmer on the stage of an inverted microscope and perfused consistently with extracellular solution. The volume of the recording chamber was about 1 mL. The extracellular solution in the chamber was completely exchanged within 1 min at a perfusion rate about 1 mL/min. Patch micropipettes were pulled with micropipette puller. Pipettes were moved to the cells by Micromanipulator and a slight positive pressure was used to clear the surface before seal formation. A high-resistance seal between the surface of the plasma membrane and the tip of pipettes were achieved by a gentle suck. […]
Data was presented as mean±S.E.M. The effects of test article were normalized with the peak currents recorded in vehicle control. […]
A general note: The hERG channel carries a current that helps repolarise heart muscle cells.

Another series concerns the target PI3K (p120γ) (h) (Homo sapiens (Human), UniProt P48736). Nature of the series: PI3K (p120γ) (h) non-radioactive HTRF kinase assay. In kind it is biochemical. The protocol: as §2, with “(p120γ)” for “(p110α/p85α)”, “phosphatidylinositol-4, 5-bisphosphate” for “phosphatidylinositol 4,5-bisphosphate”, “MgATP mix.” for “ATP solution.”, “streptavidin-allophycocyanin.” for “streptavidin allophycocyanin.”
as §3

Chain of hERG channels (Q12809 whole entry): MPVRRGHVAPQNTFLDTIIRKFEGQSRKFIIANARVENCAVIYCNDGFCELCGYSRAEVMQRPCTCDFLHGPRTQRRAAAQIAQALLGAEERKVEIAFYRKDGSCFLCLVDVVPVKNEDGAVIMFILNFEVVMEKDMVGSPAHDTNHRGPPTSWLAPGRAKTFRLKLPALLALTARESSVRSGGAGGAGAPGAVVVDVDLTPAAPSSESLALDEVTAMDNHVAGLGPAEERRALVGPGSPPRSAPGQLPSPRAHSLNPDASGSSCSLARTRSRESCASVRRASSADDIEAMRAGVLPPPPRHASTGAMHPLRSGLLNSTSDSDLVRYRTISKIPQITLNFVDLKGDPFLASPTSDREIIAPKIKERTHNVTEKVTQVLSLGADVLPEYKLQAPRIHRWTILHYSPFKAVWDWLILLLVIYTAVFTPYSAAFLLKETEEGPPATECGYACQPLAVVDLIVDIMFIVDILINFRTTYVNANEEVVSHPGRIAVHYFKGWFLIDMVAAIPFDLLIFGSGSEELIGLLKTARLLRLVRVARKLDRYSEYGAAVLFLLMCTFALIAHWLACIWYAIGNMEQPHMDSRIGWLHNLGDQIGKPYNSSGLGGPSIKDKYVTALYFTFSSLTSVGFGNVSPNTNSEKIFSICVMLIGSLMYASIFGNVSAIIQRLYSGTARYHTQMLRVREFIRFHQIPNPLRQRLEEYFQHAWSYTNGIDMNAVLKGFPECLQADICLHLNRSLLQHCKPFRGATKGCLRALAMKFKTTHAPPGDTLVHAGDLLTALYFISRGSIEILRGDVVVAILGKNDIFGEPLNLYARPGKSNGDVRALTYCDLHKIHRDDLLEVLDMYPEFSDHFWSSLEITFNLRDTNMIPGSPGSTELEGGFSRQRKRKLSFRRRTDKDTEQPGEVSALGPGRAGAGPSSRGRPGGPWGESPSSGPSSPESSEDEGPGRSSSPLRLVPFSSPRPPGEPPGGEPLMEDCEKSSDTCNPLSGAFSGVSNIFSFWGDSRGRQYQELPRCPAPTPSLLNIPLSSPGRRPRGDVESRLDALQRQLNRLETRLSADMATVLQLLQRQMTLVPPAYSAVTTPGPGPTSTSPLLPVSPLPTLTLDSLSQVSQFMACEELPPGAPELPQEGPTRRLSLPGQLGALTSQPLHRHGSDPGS
Chain of PI3K (p120γ) (h) (P48736 whole entry): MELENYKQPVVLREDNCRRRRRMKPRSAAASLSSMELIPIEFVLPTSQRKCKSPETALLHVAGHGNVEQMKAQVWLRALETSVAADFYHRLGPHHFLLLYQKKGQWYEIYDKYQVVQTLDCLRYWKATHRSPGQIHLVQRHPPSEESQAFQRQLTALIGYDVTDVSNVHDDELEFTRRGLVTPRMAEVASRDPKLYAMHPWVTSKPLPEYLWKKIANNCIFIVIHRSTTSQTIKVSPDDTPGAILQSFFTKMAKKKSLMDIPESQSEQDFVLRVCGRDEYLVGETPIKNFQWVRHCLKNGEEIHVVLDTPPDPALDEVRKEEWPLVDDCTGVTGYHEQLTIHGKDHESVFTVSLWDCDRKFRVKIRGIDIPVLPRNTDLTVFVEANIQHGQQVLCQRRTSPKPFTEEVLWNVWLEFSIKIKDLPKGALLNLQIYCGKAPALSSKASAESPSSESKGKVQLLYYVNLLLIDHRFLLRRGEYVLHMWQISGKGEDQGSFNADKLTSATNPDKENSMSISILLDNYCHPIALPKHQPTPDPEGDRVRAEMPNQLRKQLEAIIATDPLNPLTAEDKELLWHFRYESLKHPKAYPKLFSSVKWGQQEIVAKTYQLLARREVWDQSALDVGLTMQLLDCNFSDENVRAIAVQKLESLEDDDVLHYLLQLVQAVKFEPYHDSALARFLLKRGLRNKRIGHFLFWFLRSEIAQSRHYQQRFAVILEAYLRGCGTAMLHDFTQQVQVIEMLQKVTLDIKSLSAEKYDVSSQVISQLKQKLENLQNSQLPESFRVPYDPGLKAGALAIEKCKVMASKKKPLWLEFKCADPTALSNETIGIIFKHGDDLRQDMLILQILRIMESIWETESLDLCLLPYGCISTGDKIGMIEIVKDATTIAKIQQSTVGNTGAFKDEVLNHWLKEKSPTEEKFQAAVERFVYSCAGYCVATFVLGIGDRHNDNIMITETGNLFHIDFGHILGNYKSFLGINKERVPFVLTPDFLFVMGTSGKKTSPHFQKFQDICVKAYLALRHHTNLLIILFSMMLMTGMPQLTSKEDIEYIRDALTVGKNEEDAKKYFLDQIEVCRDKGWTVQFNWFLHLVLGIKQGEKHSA

What is called IC50 is the concentration needed to halve the response being measured. A word on the CLint scaled: it is the capacity of the preparation to metabolise the compound, expressed as a volume cleared per time. In the case of `Cc1noc(-c2c(N)ncnc2N[C@@H](C)c2nc3cccc(C#CCO)c3c(=O)n2-c2ccccc2)n1` [Example 34, (S)-2-(1-((6-amino-5-(3-methyl-1,2,4-oxadiazol-5-yl)pyrimidin-4-yl)amino)ethyl)-5-(3-hydroxyprop-1-yn-1-yl)-3-phenylquinazolin-4(3H)-one], the IC50 stood at 2600 nM in the series with PI3K-α (SKOV3); 770 nM at PI3K (p110α/p85α) (h); 70.3 nM with PI3K-β (786-O); 49 nM with WSU-NHL; 318 nM in the series with CCRF-SB; 300 nM in the series with SU-DHL-10. Besides, the results for the 50% inhibitory concentration (IC50) against hERG channels and at PI3K (p120γ) (h) were 15300 nM and 192 nM, respectively. For the same compound, the intrinsic metabolic clearance (CLint scaled) at 5 μM in series [1] (liver microsomes, in vivo CLint extrapolated from human liver microsome incubation) is 36.9 mL/min/kg; in [2] (liver microsomes, in vivo CLint extrapolated from rat liver microsome incubation), 31 mL/min/kg. For the same compound, the half-life at 5 μM in series [1] (human liver microsomes 0.5 mg protein/mL, compound 5 μM, NADPH, 37° C., read-out: Human T1/2) came out at 0.786 h; in [2] (rat liver microsomes 0.5 mg protein/mL, compound 5 μM, NADPH, 37° C., read-out: Rat T1/2) it was 1.34 h.
